# Tests used:
# [1] = biological target: T1, wild type AXL (wtAXL) receptor tyrosine kinase (Homo sapiens, UniProt P30530); assay: NIH-3T3-AXL cellular tyrosine kinase assay (inhibition of AXL phosphorylation); format: cell-based; details: AXL phosphorylation in NIH-3T3-AXL (clone 22) cells, serum-depleted, 2 h with compound, immunoprecipitation / anti-phosphotyrosine blot
# T1 construct: WtAXL cDNA was cloned into vector pLXSN(ESK) and transfected into Phoenix E packaging cells; expressed in transfected cells; host or cells: NIH3T3 N7 mouse fibroblasts, retrovirally infected (clone 22)
# T1 sequence (P30530 26-894): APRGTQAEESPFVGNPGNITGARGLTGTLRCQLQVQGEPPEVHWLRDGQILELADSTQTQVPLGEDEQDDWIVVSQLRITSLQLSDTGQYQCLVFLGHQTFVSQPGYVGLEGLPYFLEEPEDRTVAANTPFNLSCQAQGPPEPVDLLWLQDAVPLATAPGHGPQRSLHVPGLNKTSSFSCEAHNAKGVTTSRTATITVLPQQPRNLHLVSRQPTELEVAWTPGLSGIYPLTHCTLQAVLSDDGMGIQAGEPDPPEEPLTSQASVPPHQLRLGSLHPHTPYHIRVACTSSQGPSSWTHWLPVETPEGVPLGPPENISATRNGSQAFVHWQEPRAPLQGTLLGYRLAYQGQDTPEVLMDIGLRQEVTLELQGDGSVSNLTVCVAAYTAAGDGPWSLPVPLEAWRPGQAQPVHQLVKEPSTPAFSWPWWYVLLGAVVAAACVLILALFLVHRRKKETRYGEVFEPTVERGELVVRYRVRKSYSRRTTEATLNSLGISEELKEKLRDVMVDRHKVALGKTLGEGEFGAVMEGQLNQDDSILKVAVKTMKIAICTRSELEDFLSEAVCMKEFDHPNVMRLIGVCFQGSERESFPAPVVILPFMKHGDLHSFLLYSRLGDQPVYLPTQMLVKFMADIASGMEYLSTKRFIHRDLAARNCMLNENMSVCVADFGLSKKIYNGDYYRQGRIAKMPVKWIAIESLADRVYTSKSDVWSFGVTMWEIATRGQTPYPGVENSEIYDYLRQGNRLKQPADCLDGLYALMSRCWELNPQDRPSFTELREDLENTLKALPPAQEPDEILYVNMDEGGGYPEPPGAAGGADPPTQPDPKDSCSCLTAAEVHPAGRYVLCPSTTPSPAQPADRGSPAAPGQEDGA
# In short: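 Compound inhibition of AXL autophosphorylation was read by 4G10 immunoblot after anti-AXL immunoprecipitation from lysates. Cells: NIH3T3 lines stably carrying retroviral wild-type human AXL, treated 2 h with compound dilution series.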
melting point,IC50 [1],SMILES
181 to 183 °C,271 nM,"COc1cc2c(Oc3ccc(NS(=O)(=O)c4ccccc4OC(F)(F)F)cc3F)ccnc2cc1OCCCNC(=O)OC(C)(C)C [Example D16, (3-{4-[2-Fluoro-4-(2-trifluoromethoxy-benzenesulfonylamino)-phenoxy]-6-methoxy-quinolin-7-yloxy}-propyl)-carbamic acid tert-butyl ester]"
110 to 112 °C,46 nM,"COc1cc2c(Oc3ccc(NS(=O)(=O)c4ccccc4C(F)(F)F)cc3F)ccnc2cc1OCCCN1CCC(C)CC1 [Example D17, N-(3-Fluoro-4-{6-methoxy-7-[3-(4-methyl-piperidin-1-yl)-propoxy]-quinolin-4-yloxy}-phenyl)-2-trifluoromethyl-benzenesulfonamide]"
184 to 186 °C,151 nM,"COc1cc2c(Oc3ccc(NS(=O)(=O)c4ccccc4Br)cc3F)ccnc2cc1OCCCN1CCC(C)CC1 [Example D18, 2-Bromo-N-(3-fluoro-4-{6-methoxy-7-[3-(4-methyl-piperidin-1-yl)-propoxy]-quinolin-4-yloxy}-phenyl)-benzenesulfonamide]"
135 to 137 °C,128 nM,"COc1cc2c(Oc3ccc(NS(=O)(=O)c4ccc(F)cc4F)cc3F)ccnc2cc1OCCCN1CCC(C)CC1 [Example D19, 2,4-Difluoro-N-(3-fluoro-4-{6-methoxy-7-[3-(4-methyl-piperidin-1-yl)-propoxy]-quinolin-4-yloxy}-phenyl)-benzenesulfonamide]"
200 to 203 °C,29 nM,"COc1cc2c(Oc3ccc(NS(=O)(=O)c4c(F)cccc4F)cc3F)ccnc2cc1OCCCN1CCC(C)CC1 [Example D20, 2,6-Difluoro-N-(3-fluoro-4-{6-methoxy-7-[3-(4-methyl-piperidin-1-yl)-propoxy]-quinolin-4-yloxy}-phenyl)-benzenesulfonamide]"
140 to 143 °C,347 nM,"COc1cc2c(Oc3ccc(NS(=O)(=O)c4cccc5ccccc45)cc3F)ccnc2cc1OCCCN1CCC(C)CC1 [Example D21, Naphthalene-1-sulfonic acid (3-fluoro-4-{6-methoxy-7-[3-(4-methyl-piperidin-1-yl)-propoxy]-quinolin-4-yloxy}-phenyl)-amide]"
160 to 162 °C,477 nM,"CCCS(=O)(=O)Nc1ccc(Oc2ccnc3cc(OCCCN4CCC(C)CC4)c(OC)cc23)c(F)c1 [Example D22, Propane-1-sulfonic acid (3-fluoro-4-{6-methoxy-7-[3-(4-methyl-piperidin-1-yl)-propoxy]-quinolin-4-yloxy}-phenyl)-amide]"
139 to 142 °C,211 nM,"COc1cc2c(Oc3ccc(NS(=O)(=O)c4ccccc4C#N)cc3F)ccnc2cc1OCCCN1CCC(C)CC1 [Example D23, 2-Cyano-N-(3-fluoro-4-{6-methoxy-7-[3-(4-methyl-piperidin-1-yl)-propoxy]-quinolin-4-yloxy}-phenyl)-benzenesulfonamide]"
136 to 138 °C,181 nM,"COc1cc2c(Oc3ccc(NS(=O)(=O)c4ccc(Cl)cc4F)cc3F)ccnc2cc1OCCCN1CCCC(C)C1 (stereo not shown) [Example D24, 4-Chloro-2-fluoro-N-(3-fluoro-4-{6-methoxy-7-[3-(3-methyl-piperidin-1-yl)-propoxy]-quinolin-4-yloxy}-phenyl)-benzenesulfonamide]"
104 to 106 °C,378 nM,"CCCCS(=O)(=O)Nc1ccc(Oc2ccnc3cc(OCCCN4CCCC(C)C4)c(OC)cc23)c(F)c1 (stereo not shown) [Example D25, Butane-1-sulfonic acid (3-fluoro-4-{6-methoxy-7-[3-(3-methyl-piperidin-1-yl)-propoxy]-quinolin-4-yloxy}-phenyl)-amide]"
175 to 177 °C,150 nM,"COc1cc2c(Oc3ccc(NS(=O)(=O)c4ccccc4Br)cc3F)ccnc2cc1OCCN1CCOCC1 [Example D26, 2-Bromo-N-{3-fluoro-4-[6-methoxy-7-(2-morpholin-4-yl-ethoxy)-quinolin-4-yloxy]-phenyl}-benzenesulfonamide]"
193 to 196 °C,783 nM,"COc1cc2c(Oc3ccc(NS(=O)(=O)c4ccccc4C#N)cc3F)ccnc2cc1OCCN1CCOCC1 [Example D27, 2-Cyano-N-{3-fluoro-4-[6-methoxy-7-(2-morpholin-4-yl-ethoxy)-quinolin-4-yloxy]-phenyl}-benzenesulfonamide]"

# Second part, the compound before the results:
SMILES,melting point,IC50 [1]
"Cc1cc(Oc2ccc(NS(=O)(=O)c3csc4ccccc34)c(F)c2)c2cccc(C(F)(F)F)c2n1 [Example C18, Benzo[b]thiophene-3-sulfonic acid [2-fluoro-4-(2-methyl-8-trifluoromethyl-quinolin-4-yloxy)phenyl]-amide]",242 to 244 °C,> 10000 nM
"Cc1cc(Oc2ccc(NS(=O)(=O)c3ccc4c(c3)CC(=O)N4C)c(F)c2)c2cccc(C(F)(F)F)c2n1 [Example C19, 1-Methyl-2-oxo-2,3-dihydro-1H-indole-5-sulfonic acid [2-fluoro-4-(2-methyl-8-trifluoro-methyl-quinolin-4-yloxy)-phenyl]-amide]",225 to 226 °C,> 10000 nM
"COc1cc2c(Oc3ccc(NS(=O)(=O)c4cccc(-c5ccccc5)c4)c(F)c3)ccnc2cc1OCc1ccccc1 [Example D01, Biphenyl-3-sulfonic acid [4-(7-benzyloxy-6-methoxy-quinolin-4-yloxy)-2-fluoro-phenyl]-amide]",228 to 229 °C,> 10000 nM
"COc1cc2c(Oc3ccc(NS(=O)(=O)c4cccc(-c5ccccc5)c4)cc3F)ccnc2cc1OCCN1CCOCC1 [Example D04, Biphenyl-3-sulfonic acid {3-fluoro-4-[6-methoxy-7-(2-morpholin-4-yl-ethoxy)-quinolin-4-yloxy]-phenyl}-amide]",103 to 104 °C,320 nM
"COc1cc2c(Oc3ccc(NS(=O)(=O)c4ccccc4OC(F)(F)F)cc3F)ccnc2cc1OCCN1CCOCC1 [Example D06, N-{3-Fluoro-4-[6-methoxy-7-(2-morpholin-4-yl-ethoxy)-quinolin-4-yloxy]-phenyl}-2-trifluoromethoxy-benzenesulfonamide]",185 to 187 °C,69 nM
"COc1cc2c(Oc3ccc(NS(=O)(=O)c4cccc(-c5ccccc5)c4)c(C)c3)ccnc2cc1OCCN1CCOCC1 [Example D07, Biphenyl-3-sulfonic acid {4-[6-methoxy-7-(2-morpholin-4-yl-ethoxy)-quinolin-4-yloxy]-2-methyl-phenyl}-amide]",105 to 107 °C,350 nM
"COc1cc2c(Oc3ccc(NS(=O)(=O)c4ccccc4OC(F)(F)F)c(C)c3)ccnc2cc1OCCN1CCOCC1 [Example D08, N-{4-[6-Methoxy-7-(2-morpholin-4-yl-ethoxy)-quinolin-4-yloxy]-2-methyl-phenyl}-2-trifluoromethoxy-benzenesulfonamide]",186 to 188 °C,2500 nM
"COc1cc2c(Oc3ccc(NS(=O)(=O)c4cc(F)ccc4F)c(C)c3)ccnc2cc1OCCN1CCOCC1 [Example D09, 2,5-Difluoro-N-{4-[6-methoxy-7-(2-morpholin-4-yl-ethoxy)-quinolin-4-yloxy]-2-methyl-phenyl}-benzenesulfonamide]",195 to 196 °C,2460 nM
"COc1cc2c(Oc3ccc(NS(=O)(=O)c4ccccc4C(F)(F)F)c(C)c3)ccnc2cc1OCCN1CCOCC1 [Example D11, N-{4-[6-Methoxy-7-(2-morpholin-4-yl-ethoxy)-quinolin-4-yloxy]-2-methyl-phenyl}-2-trifluoromethyl-benzenesulfonamide]",127 to 130 °C,> 3000 nM
"COc1cc2c(Oc3ccc(NS(=O)(=O)c4ccc(Cl)cc4F)cc3F)ccnc2cc1OCCN1CCOCC1 [Example D12, 4-Chloro-2-fluoro-N-{3-fluoro-4-[6-methoxy-7-(2-morpholin-4-yl-ethoxy)-quinolin-4-yloxy]-phenyl}-benzenesulfonamide]",212 to 214 °C,300 nM
"COc1cc2c(Oc3ccc(NS(=O)(=O)c4ccc(OC)c5ccccc45)cc3F)ccnc2cc1OCCN1CCOCC1 [Example D13, 4-Methoxy-naphthalene-1-sulfonic acid {3-fluoro-4-[6-methoxy-7-(2-morpholin-4-yl-ethoxy)-quinolin-4-yloxy]-phenyl}-amide]",189 to 190 °C,57 nM
